Laboratory results reported in US12258327B2, “5-membered heteroaryl-containing aminopyridine compounds as EGFR inhibitors” (YUHAN CORPORATION, priority 2021, dated 2025).
Where two headings read alike, the source gives them in different places.

Assays:
EGFR del19/T790M/C797S = EGFR del19/T790M/C797S (Homo sapiens, UniProt P00533, C797S/DEL746-750/T790M); assay: Biochemical EGFR kinase assay (Lance Ultra TR-FRET), triple mutant del19/T790M/C797S
In short: (§1)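 In this biochemical assay, phosphorylation after a one-hour room-temperature reaction was detected with europium-labelled anti-phosphopeptide antibody at 2 nM final concentration.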

EGFR del19/C797S = EGFR del19/C797S (Homo sapiens, UniProt P00533, C797S/DEL746-750); assay: Biochemical EGFR kinase assay (Lance Ultra TR-FRET), double mutant del19/C797S
Chain of EGFR del19/C797S (P00533 with tags, fused parts or gaps DEL746-750/C797S): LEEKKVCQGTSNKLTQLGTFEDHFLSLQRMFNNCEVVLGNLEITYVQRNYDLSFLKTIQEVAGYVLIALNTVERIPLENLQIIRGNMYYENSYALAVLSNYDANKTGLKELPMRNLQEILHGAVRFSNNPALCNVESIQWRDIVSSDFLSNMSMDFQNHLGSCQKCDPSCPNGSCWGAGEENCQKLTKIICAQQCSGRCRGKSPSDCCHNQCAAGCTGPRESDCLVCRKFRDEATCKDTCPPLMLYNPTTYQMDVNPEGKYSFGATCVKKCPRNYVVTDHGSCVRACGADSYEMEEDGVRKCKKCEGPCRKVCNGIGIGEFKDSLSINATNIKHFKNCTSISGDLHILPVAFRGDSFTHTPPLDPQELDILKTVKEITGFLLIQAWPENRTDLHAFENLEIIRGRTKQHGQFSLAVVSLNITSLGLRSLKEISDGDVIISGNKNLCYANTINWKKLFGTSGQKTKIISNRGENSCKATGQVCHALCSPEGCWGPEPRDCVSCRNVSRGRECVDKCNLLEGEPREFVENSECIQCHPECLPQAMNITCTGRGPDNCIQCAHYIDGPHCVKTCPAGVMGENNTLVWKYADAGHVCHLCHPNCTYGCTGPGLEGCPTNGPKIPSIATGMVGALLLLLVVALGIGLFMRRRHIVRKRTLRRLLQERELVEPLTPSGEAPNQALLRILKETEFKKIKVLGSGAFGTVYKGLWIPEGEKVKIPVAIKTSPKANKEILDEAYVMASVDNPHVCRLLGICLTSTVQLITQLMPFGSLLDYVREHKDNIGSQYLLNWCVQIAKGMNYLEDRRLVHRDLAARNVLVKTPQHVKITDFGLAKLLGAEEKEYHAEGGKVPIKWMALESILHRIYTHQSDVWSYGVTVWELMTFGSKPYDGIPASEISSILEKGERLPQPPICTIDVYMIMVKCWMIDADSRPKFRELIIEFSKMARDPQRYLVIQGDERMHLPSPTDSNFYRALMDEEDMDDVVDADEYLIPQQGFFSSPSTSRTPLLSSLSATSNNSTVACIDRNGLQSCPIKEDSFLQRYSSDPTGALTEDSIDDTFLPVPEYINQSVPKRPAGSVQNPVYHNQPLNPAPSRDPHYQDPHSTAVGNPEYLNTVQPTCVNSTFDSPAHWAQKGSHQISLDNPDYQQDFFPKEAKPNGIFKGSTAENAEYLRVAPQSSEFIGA
In short: as §1

EGFR L858R/C797S = EGFR L858R/C797S (Homo sapiens, UniProt P00533, C797S/L858R); assay: Biochemical EGFR kinase assay (Lance Ultra TR-FRET), double mutant L858R/C797S
Chain of EGFR L858R/C797S (P00533 25-1210 C797S/L858R): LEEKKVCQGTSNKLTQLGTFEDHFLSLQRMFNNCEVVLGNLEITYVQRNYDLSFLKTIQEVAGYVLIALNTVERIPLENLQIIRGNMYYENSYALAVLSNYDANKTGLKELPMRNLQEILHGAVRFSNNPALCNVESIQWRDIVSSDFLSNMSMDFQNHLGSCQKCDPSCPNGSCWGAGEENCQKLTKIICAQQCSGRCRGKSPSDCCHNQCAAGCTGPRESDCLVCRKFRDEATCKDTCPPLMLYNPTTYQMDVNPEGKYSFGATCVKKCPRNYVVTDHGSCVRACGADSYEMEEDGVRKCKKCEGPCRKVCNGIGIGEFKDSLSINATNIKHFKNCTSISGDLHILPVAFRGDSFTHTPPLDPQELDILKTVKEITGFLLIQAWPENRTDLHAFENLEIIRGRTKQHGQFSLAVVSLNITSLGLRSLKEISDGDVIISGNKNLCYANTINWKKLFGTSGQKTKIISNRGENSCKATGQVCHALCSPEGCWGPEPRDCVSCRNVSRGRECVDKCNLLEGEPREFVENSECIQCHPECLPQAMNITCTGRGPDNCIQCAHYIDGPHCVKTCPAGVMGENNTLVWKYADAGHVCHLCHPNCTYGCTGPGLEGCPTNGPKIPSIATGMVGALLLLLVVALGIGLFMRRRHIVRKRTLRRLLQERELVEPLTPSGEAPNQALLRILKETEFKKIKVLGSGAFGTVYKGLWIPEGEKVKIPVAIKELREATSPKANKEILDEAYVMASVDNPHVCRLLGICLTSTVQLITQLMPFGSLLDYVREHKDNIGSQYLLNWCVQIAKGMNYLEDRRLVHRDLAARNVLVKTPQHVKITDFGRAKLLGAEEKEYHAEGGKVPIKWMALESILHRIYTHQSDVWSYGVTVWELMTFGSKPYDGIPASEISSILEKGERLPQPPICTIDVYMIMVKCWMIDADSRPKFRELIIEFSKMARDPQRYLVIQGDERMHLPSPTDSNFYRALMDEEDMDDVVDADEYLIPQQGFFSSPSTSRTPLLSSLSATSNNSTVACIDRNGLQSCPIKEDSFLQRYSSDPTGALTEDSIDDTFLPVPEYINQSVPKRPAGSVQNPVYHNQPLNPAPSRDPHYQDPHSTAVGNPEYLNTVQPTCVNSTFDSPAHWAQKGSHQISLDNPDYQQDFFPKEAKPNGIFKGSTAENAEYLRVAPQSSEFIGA
In short: as §1

EGFR L858R/T790M/C797S = EGFR L858R/T790M/C797S (Homo sapiens, UniProt P00533, C797S/L858R/T790M); assay: Biochemical EGFR kinase assay (Lance Ultra TR-FRET), triple mutant L858R/T790M/C797S
In short: as §1

EGFR wildtype (WT) = EGFR wildtype (WT) (Homo sapiens, UniProt P00533); assay: Biochemical EGFR kinase assay (Lance Ultra TR-FRET), wildtype
Chain of EGFR wildtype (WT) (P00533 25-1210): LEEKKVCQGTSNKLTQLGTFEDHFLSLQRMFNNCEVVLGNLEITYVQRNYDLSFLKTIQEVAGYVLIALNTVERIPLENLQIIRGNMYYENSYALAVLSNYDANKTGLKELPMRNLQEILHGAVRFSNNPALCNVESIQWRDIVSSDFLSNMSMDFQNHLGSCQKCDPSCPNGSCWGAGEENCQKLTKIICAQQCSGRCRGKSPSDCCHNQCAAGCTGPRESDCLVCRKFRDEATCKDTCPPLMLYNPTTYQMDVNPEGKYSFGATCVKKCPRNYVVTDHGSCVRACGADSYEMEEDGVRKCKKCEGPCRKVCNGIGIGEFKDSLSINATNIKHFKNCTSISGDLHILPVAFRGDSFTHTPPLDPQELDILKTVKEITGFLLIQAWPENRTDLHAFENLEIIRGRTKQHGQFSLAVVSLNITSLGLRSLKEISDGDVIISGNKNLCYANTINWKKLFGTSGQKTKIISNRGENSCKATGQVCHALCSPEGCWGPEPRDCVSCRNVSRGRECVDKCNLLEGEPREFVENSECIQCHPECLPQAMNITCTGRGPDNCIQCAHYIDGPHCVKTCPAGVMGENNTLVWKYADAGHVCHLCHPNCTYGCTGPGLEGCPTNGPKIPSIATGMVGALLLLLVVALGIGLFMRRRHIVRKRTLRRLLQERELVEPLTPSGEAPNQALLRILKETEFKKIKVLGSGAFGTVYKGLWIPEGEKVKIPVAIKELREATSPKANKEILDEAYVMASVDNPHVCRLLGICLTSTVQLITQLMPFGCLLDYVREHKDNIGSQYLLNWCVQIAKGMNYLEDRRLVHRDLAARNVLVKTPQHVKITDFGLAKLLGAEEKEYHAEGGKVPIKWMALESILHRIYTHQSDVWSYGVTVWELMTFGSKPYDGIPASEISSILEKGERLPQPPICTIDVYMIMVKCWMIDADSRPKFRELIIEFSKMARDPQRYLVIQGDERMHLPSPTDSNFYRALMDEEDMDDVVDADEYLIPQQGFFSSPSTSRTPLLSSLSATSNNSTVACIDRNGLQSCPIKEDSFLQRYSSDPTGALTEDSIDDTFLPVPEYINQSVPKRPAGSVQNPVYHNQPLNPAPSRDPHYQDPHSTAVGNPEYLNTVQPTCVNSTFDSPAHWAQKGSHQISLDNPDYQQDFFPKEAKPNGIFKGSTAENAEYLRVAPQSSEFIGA
In short: as §1

[1] = Km ATP, read-out: IC50 del19/T790M/C797S (nM) Km ATP
[2] = Km ATP, read-out: IC50 del19/C797S (nM) Km ATP
[3] = Km ATP, read-out: IC50 L858R/C797S (nM) Km ATP
[4] = Km ATP, read-out: IC50 L858R/T790M/C797S (nM) Km ATP
[5] = Km ATP, read-out: IC50 WT (nM) Km ATP
[6] = IC50 del19/T790M/C797S (nM) 100 μM ATP, 100 μM ATP
[7] = IC50 del19/C797S (nM) 100 μM ATP, 100 μM ATP
[8] = IC50 L858R/C797S (nM) 100 μM ATP, 100 μM ATP
[9] = IC50 L858R/T790M/C797S (nM) 100 μM ATP, 100 μM ATP
[10] = IC50 WT (nM) 100 μM ATP, 100 μM ATP
[11] = Km ATP, read-out: IC50 del19/T790M/C797S, Km ATP
[12] = Km ATP, read-out: IC50 del19/C797S, Km ATP
[13] = Km ATP, read-out: IC50 L858R/C797S, Km ATP
[14] = Km ATP, read-out: IC50 L858R/T790M/C797S, Km ATP
[15] = Km ATP, read-out: IC50 WT, Km ATP

Chain of EGFR del19/T790M/C797S (P00533 with tags, fused parts or gaps DEL746-750/T790M/C797S): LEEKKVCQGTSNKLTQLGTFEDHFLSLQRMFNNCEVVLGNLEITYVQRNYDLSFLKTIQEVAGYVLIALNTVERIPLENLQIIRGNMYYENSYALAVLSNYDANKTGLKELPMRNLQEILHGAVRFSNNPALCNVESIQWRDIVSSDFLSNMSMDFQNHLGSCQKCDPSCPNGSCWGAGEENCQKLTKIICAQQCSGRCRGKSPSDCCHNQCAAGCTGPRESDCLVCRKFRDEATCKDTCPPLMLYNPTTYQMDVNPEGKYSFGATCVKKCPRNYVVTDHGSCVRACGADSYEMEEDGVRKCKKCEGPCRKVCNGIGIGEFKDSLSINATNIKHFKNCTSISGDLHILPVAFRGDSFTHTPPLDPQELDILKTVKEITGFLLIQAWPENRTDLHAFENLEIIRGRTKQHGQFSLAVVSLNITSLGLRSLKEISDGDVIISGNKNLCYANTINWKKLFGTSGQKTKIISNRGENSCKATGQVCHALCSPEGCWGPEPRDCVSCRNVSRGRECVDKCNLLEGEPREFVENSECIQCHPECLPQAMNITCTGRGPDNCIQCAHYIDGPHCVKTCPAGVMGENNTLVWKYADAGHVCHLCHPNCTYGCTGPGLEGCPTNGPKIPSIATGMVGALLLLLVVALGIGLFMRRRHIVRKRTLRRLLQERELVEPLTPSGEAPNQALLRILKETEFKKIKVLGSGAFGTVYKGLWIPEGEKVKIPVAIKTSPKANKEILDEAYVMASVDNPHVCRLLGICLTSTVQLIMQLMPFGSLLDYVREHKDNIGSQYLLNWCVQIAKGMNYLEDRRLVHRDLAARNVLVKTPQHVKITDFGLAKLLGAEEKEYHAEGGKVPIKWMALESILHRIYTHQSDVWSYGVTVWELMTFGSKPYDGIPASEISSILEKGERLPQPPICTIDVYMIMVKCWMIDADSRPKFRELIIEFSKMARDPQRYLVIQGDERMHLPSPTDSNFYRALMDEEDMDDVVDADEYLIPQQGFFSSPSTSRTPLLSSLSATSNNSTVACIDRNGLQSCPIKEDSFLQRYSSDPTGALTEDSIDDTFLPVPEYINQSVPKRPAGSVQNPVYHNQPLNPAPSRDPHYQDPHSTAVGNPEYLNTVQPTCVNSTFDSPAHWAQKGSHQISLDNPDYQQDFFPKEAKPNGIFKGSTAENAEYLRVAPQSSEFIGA

C[C@]1(O)CC[C@@H](Nc2cc(Nc3ccnc(-c4cnc5c(c4)NCCO5)n3)ncc2-c2ccn(C(F)F)n2)CC1 [Example 154, (1s,4s)-4-((5-(1-(Difluoromethyl)-1H-pyrazol-3-yl)-2-((2-(2,3-dihydro-1H-pyrido[2,3-b][1,4]oxazin-7-yl)pyrimidin-4-yl)amino)pyridin-4-yl)amino)-1-methylcyclohexan-1-ol]
IC50 (EGFR del19/T790M/C797S; [1]): 0.3 nM | IC50 (EGFR del19/C797S; [2]): 128 nM | IC50 (EGFR L858R/C797S; [3]): 16.2 nM | IC50 (EGFR L858R/T790M/C797S; [4]): 0.2 nM | IC50 (EGFR wildtype (WT); [5]): 377 nM

CS(=O)(=O)n1cc(-c2nccc(Nc3cc(N[C@H]4CC[C@@](C)(O)CC4)c(-c4ccn(C(F)F)n4)cn3)n2)cn1 [Example 112, (1s,4s)-4-((5-(1-(Difluoromethyl)-1H-pyrazol-3-yl)-2-((2-(1-(methylsulfonyl)-1H-pyrazol-4-yl)pyrimidin-4-yl)amino)pyridin-4-yl)amino)-1-methylcyclohexan-1-ol]
IC50 (EGFR del19/T790M/C797S; [1]): 1.2 nM | IC50 (EGFR del19/T790M/C797S; read-out: IC50 del19/T790M/C797S (nM) 100 μM ATP, 100 μM ATP): 2.1 nM | IC50 (EGFR del19/C797S; [2]): 34.5 nM | IC50 (EGFR del19/C797S; read-out: IC50 del19/C797S (nM) 100 μM ATP, 100 μM ATP): 75.4 nM | IC50 (EGFR L858R/C797S; [3]): 34.9 nM | IC50 (EGFR L858R/C797S; read-out: IC50 L858R/C797S (nM) 100 μM ATP, 100 μM ATP): 60.7 nM | IC50 (EGFR L858R/T790M/C797S; [4]): 0.5 nM | IC50 (EGFR L858R/T790M/C797S; read-out: IC50 L858R/T790M/C797S (nM) 100 μM ATP, 100 μM ATP): 4.9 nM | IC50 (EGFR wildtype (WT); [5]): 220 nM | IC50 (EGFR wildtype (WT); read-out: IC50 WT (nM) 100 μM ATP, 100 μM ATP): > 10000 nM

CC(O)C(C)(C)Nc1cc(Nc2ccnc(-c3cnn(S(=O)(=O)C4CC4)c3)n2)ncc1-c1ccn(C)n1 (stereo not drawn) [Example 95, 3-((2-((2-(1-(Cyclopropylsulfonyl)-1H-pyrazol-4-yl)pyrimidin-4-yl)amino)-5-(1-methyl-1H-pyrazol-3-yl)pyridin-4-yl)amino)-3-methylbutan-2-ol]
IC50 (EGFR del19/T790M/C797S; [6]): 1.3 nM | IC50 (EGFR del19/C797S; [7]): 57.7 nM | IC50 (EGFR L858R/C797S; [8]): 45.2 nM | IC50 (EGFR L858R/T790M/C797S; [9]): 1.9 nM | IC50 (EGFR wildtype (WT); [10]): > 10000 nM

Cc1nn(CC(F)(F)F)cc1-c1cc(Nc2ncc(-c3ccn(C(F)F)n3)c(N[C@H]3CC[C@@](C)(O)CC3)n2)ccn1 [Example 368, (1s,4s)-4-((5-(1-(Difluoromethyl)-1H-pyrazol-3-yl)-2-((2-(3-methyl-1-(2,2,2-trifluoroethyl)-1H-pyrazol-4-yl)pyridin-4-yl)amino)pyrimidin-4-yl)amino)-1-methylcyclohexan-1-ol]
IC50 (EGFR del19/T790M/C797S; [11]): 1.9 nM | IC50 (EGFR del19/C797S; [12]): 12.6 nM | IC50 (EGFR L858R/C797S; [13]): 10.7 nM | IC50 (EGFR L858R/T790M/C797S; [14]): 0.9 nM | IC50 (EGFR wildtype (WT); [15]): 33.6 nM

Cn1nc(-c2cnc(Nc3ccnc(-c4cnn(CC(F)F)c4)c3)nc2N[C@H]2CC[C@@](C)(O)CC2)cc1C(F)(F)F [Example 361, (1s,4s)-4-((2-((2-(1-(2,2-Difluoroethyl)-1H-pyrazol-4-yl)pyridin-4-yl)amino)-5-(1-methyl-5-(trifluoromethyl)-1H-pyrazol-3-yl)pyrimidin-4-yl)amino)-1-methylcyclohexan-1-ol]
IC50 (EGFR del19/T790M/C797S; [11]): 0.5 nM | IC50 (EGFR del19/C797S; [12]): 14.2 nM | IC50 (EGFR L858R/C797S; [13]): 20 nM | IC50 (EGFR L858R/T790M/C797S; [14]): 1.1 nM | IC50 (EGFR wildtype (WT); [15]): 685 nM

CC(C)Nc1cc(Nc2ccnc(-c3cnn(S(=O)(=O)C4CC4)c3)n2)ncc1-c1ccn(CCC(F)(F)F)n1 [Example 304, N^2-(2-(1-(Cyclopropylsulfonyl)-1H-pyrazol-4-yl)pyrimidin-4-yl)-N^4-isopropyl-5-(1-(3,3,3-trifluoropropyl)-1H-pyrazol-3-yl)pyridine-2,4-diamine]
IC50 (EGFR del19/T790M/C797S; [1]): 1.1 nM | IC50 (EGFR del19/C797S; [2]): 340 nM | IC50 (EGFR L858R/C797S; [3]): 0.8 nM | IC50 (EGFR L858R/T790M/C797S; [4]): 1.8 nM | IC50 (EGFR wildtype (WT); [5]): 355 nM

Cc1nn(CC(F)(F)F)cc1-c1nccc(Nc2cc(N[C@H]3CC[C@@](C)(O)CC3)c(-c3cc(C(F)(F)F)n(C)n3)cn2)n1 [Example 332, (1s,4s)-1-Methyl-4-((2-((2-(3-methyl-1-(2,2,2-trifluoroethyl)-1H-pyrazol-4-yl)pyrimidin-4-yl)amino)-5-(1-methyl-5-(trifluoromethyl)-1H-pyrazol-3-yl)pyridin-4-yl)amino)cyclohexan-1-ol]
IC50 (EGFR del19/T790M/C797S; [11]): 5.9 nM | IC50 (EGFR del19/C797S; [12]): 10.1 nM | IC50 (EGFR L858R/C797S; [13]): 6 nM | IC50 (EGFR L858R/T790M/C797S; [14]): 3.2 nM | IC50 (EGFR wildtype (WT); [15]): 98 nM

C[C@]1(O)CC[C@@H](Nc2cc(Nc3ccnc(-c4cnn(CC(F)(F)F)c4)n3)ncc2-c2ccn(CC(F)F)n2)CC1 [Example 344, (1s,4s)-4-((5-(1-(2,2-Difluoroethyl)-1H-pyrazol-3-yl)-2-((2-(1-(2,2,2-trifluoroethyl)-1H-pyrazol-4-yl)pyrimidin-4-yl)amino)pyridin-4-yl)amino)-1-methylcyclohexan-1-ol]
IC50 (EGFR del19/T790M/C797S; [11]): 0.4 nM | IC50 (EGFR del19/C797S; [12]): 29.5 nM | IC50 (EGFR L858R/C797S; [13]): 0.2 nM | IC50 (EGFR L858R/T790M/C797S; [14]): 0.4 nM | IC50 (EGFR wildtype (WT); [15]): 58.6 nM

O=S(=O)(C1CC1)n1cc(-c2nccc(Nc3cc(N[C@H]4CC[C@@H](C(F)F)CC4)c(-c4ccn(C(F)F)n4)cn3)n2)cn1 [Example 157, N^2-(2-(1-(Cyclopropylsulfonyl)-1H-pyrazol-4-yl)pyrimidin-4-yl)-5-(1-(difluoromethyl)-1H-pyrazol-3-yl)-N^4-((1s,4s)-4-(difluoromethyl)cyclohexyl)pyridine-2,4-diamine]
IC50 (EGFR del19/T790M/C797S; [1]): 30.9 nM | IC50 (EGFR del19/C797S; [2]): 125 nM | IC50 (EGFR L858R/C797S; [3]): 55.7 nM | IC50 (EGFR L858R/T790M/C797S; [4]): 9.7 nM | IC50 (EGFR wildtype (WT); [5]): 408 nM

C[C@]1(O)CC[C@H](CNc2cc(Nc3ccnc(-c4cnn(S(=O)(=O)C5CC5)c4)n3)ncc2-c2ccn(C(F)F)n2)CC1 [Example 36, (1r,4r)-4-(((2-((2-(1-(Cyclopropylsulfonyl)-1H-pyrazol-4-yl)pyrimidin-4-yl)amino)-5-(1-(difluoromethyl)-1H-pyrazol-3-yl)pyridin-4-yl)amino)methyl)-1-methylcyclohexan-1-ol]
IC50 (EGFR del19/T790M/C797S; [6]): 1 nM | IC50 (EGFR del19/T790M/C797S; [1]): 0.8 nM | IC50 (EGFR del19/C797S; [7]): 6.8 nM | IC50 (EGFR del19/C797S; [2]): 5.4 nM | IC50 (EGFR L858R/C797S; [8]): 33.8 nM | IC50 (EGFR L858R/C797S; [3]): 3.9 nM | IC50 (EGFR L858R/T790M/C797S; [9]): 1.2 nM | IC50 (EGFR L858R/T790M/C797S; [4]): 0.3 nM | IC50 (EGFR wildtype (WT); [10]): > 10000 nM | IC50 (EGFR wildtype (WT); [5]): 25.1 nM

CN1CC(Nc2cc(Nc3ccnc(-c4cnn(S(=O)(=O)C5CC5)c4)n3)ncc2-c2ccn(C(F)F)n2)CCC1=O (stereo not drawn) [Example 37, 5-((2-((2-(1-(Cyclopropylsulfonyl)-1H-pyrazol-4-yl)pyrimidin-4-yl)amino)-5-(1-(difluoromethyl)-1H-pyrazol-3-yl)pyridin-4-yl)amino)-1-methylpiperidin-2-one]
IC50 (EGFR del19/T790M/C797S; [6]): 1.4 nM | IC50 (EGFR del19/T790M/C797S; [1]): 1.2 nM | IC50 (EGFR del19/C797S; [7]): 16.6 nM | IC50 (EGFR del19/C797S; [2]): 12.1 nM | IC50 (EGFR L858R/C797S; [8]): 264 nM | IC50 (EGFR L858R/C797S; [3]): 5 nM | IC50 (EGFR L858R/T790M/C797S; [9]): 6.6 nM | IC50 (EGFR L858R/T790M/C797S; [4]): 0.7 nM | IC50 (EGFR wildtype (WT); [10]): > 10000 nM | IC50 (EGFR wildtype (WT); [5]): 108 nM

OCC[C@H]1CC[C@@H](Nc2cc(Nc3ccnc(-c4cnn(CC(F)F)c4)n3)ncc2-c2ccn(CC(F)(F)F)n2)CC1 [Example 338, 2-((1s,4s)-4-((2-((2-(1-(2,2-Difluoroethyl)-1H-pyrazol-4-yl)pyrimidin-4-yl)amino)-5-(1-(2,2,2-trifluoroethyl)-1H-pyrazol-3-yl)pyridin-4-yl)amino)cyclohexyl)ethan-1-ol]
IC50 (EGFR del19/T790M/C797S; [11]): 0.7 nM | IC50 (EGFR del19/C797S; [12]): 13.2 nM | IC50 (EGFR L858R/C797S; [13]): 3.9 nM | IC50 (EGFR L858R/T790M/C797S; [14]): 0.4 nM | IC50 (EGFR wildtype (WT); [15]): 45.1 nM

CN(C)C[C@H]1CC[C@@H](Nc2cc(Nc3ccnc(-c4cnn(S(=O)(=O)C5CC5)c4)n3)ncc2-c2ccn(C)n2)CC1 [Example 226, N^2-(2-(1-(Cyclopropylsulfonyl)-1H-pyrazol-4-yl)pyrimidin-4-yl)-N^4-((1s,4s)-4-((dimethylamino)methyl)cyclohexyl)-5-(1-methyl-1H-pyrazol-3-yl)pyridine-2,4-diamine]
IC50 (EGFR del19/T790M/C797S; [6]): 0.1 nM | IC50 (EGFR del19/T790M/C797S; [1]): 0.1 nM | IC50 (EGFR del19/C797S; [7]): 0.2 nM | IC50 (EGFR del19/C797S; [2]): 0.1 nM | IC50 (EGFR L858R/C797S; [3]): 0.1 nM | IC50 (EGFR L858R/T790M/C797S; [9]): 0.1 nM | IC50 (EGFR L858R/T790M/C797S; [4]): 0.1 nM | IC50 (EGFR wildtype (WT); [10]): 96.9 nM | IC50 (EGFR wildtype (WT); [5]): 0.2 nM
